In patent US20260034166A1, “HEPARIN COMPOSITIONS FOR TREATMENT OF LUNG DAMAGE AND METHODS OF USE THEREOF” (Atossa Therapeutics, Inc., priority 2022, published 2026):

Columns and labels:
ciliary motility = conditions: cited from earlier work
[1] = aqueous solution at physiologic pH; cited from earlier work
[2] = Treatment of radiation-induced lung damage using nebulized enoxaparin and N-acetylcysteine; type: in vivo, human
Procedure: This example describes treatment of radiation-induced lung damage using nebulized enoxaparin and N-acetylcysteine. A patient with unresectable lung cancer, such as locally advanced or metastatic stage III/oligometastatic IV non-small cell lung carcinoma, who has received radiation therapy is administered nebulized enoxaparin via inhalation. The enoxaparin is purified to remove elemental impurities, as described in EXAMPLE 1, and formulated in water at a concentration of 100 mg/mL for a nebulized composition as described in EXAMPLE 2. A dose of either 0.5 mg enoxaparin per kg patient weight (mg/kg), 1 mg/kg, or 2 mg/kg of the aqueous enoxaparin formulation is nebulized and administered to the subject via inhalation every 12 hours for 14 days, followed by 14 days of no enoxaparin treatment. N-acetylcysteine is administered by inhalation via nebulization at 600 mg per dose 30 minutes after each dose of enoxaparin. The 28-day treatment cycle begins 4-6 weeks after completion of radiation therapy, and the treatment cycle is repeated for up to 6 cycles in the absence of disease progression or unacceptable toxicity. The patient continues to receive best supportive care for the lung cancer (e.g., chemotherapy therapy) while undergoing enoxaparin treatment.
(§1) Additionally, the enoxaparin therapy may reduce the recurrence of the lung cancer by slowing cancer progression through inhibition of mutagenic proliferation, adhesion, angiogenesis, migration, and invasion of cancer cells.

[3] = Treatment of chemotherapy-induced lung damage using nebulized heparin and N-acetylcysteine; type: in vivo, human
Procedure: This example describes treatment of chemotherapy-induced lung damage using nebulized heparin and N-acetylcysteine. A patient with unresectable lung cancer, such as locally advanced or metastatic stage III/oligometastatic IV non-small cell lung carcinoma, who is undergoing chemotherapy therapy with bleomycin, carmustine, lomustine, busulfan, daunorubicin, doxorubicin, or idarubicin is administered nebulized enoxaparin via inhalation. The enoxaparin is purified to remove elemental impurities, as described in EXAMPLE 1, and formulated in water at a concentration of 100 mg/mL for a nebulized composition as described in EXAMPLE 2. A dose of either 0.5 mg enoxaparin per kg patient weight (mg/kg), 1 mg/kg, or 2 mg/kg of the aqueous enoxaparin formulation is nebulized and administered to the subject via inhalation every 12 hours for 14 days, followed by 14 days of no enoxaparin treatment. N-acetylcysteine is administered by inhalation via nebulization at 600 mg per dose 30 minutes after each dose of enoxaparin. The 28-day treatment cycle is repeated for up to 6 cycles in the absence of disease progression or unacceptable toxicity. The patient continues to receive best supportive care for the lung cancer (e.g., chemotherapy therapy) while undergoing enoxaparin treatment.
as §1

[4] = same regimen, after radiation therapy
[5] = same regimen, during chemotherapy

For “2-alkyl-4-hydroxyquinolines [pyo compound]”, the “concentration producing ciliostasis / inhibiting ciliary motility” value (ciliary motility; ciliostatic factors from Pseudomonas aeruginosa) is listed as 50 µg/mL.
In the case of `CCN(CC)/[N+]([O-])=N/O.CCNCC` [diethylamine/NO], the “time scale of NO release” value [1] is given as < 3 min.
For `NCCN(CCN)/[N+]([O-])=N/O` [diethylenetriamine/NO], the “time scale of NO release” value [1] is given as “approximately 20 hours”.
For enoxaparin, the “development of radiation-induced pneumonitis” value ([2]; patient with unresectable lung cancer after radiation therapy, 0.5, 1 or 2 mg/kg inhaled every 12 hours for 14 days, N-acetylcysteine 600 mg after each dose) was “treats, prevents, or slows the development”, the airway inflammation [2, 4] was “decreases airway inflammation” and the “coagulation activation and pulmonary venous thromboembolism” value [2, 4] was “prevents coagulation activation and pulmonary venous thromboembolism”. The “release of inflammatory cytokines, such as IL-6” value [2, 4] was “inhibits release”, the “development of chemotherapy-induced pneumonitis” value ([3]; patient with unresectable lung cancer undergoing chemotherapy, 0.5, 1 or 2 mg/kg inhaled every 12 hours for 14 days, N-acetylcysteine 600 mg after each dose) was “treats, prevents, or slows the development” and the airway inflammation [3, 5] was “decreases airway inflammation”. The “coagulation activation and pulmonary venous thromboembolism” value [3, 5] was “prevents coagulation activation and pulmonary venous thromboembolism” and the “release of inflammatory cytokines, such as IL-6” value [3, 5] was “inhibits release”.
For rhamnolipid, the effect on cilia (ciliary motility; limited exposure of tracheal explants) is given as “resulted in ciliostasis”.
